Data: the supplement of paper PMC8671470

Assays:
Details in all cases: 72 h
MV4-11 [1] = assay: cell viability (% survival relative to DMSO control, bortezomib = 0%); higher = less cytotoxic
Summary of the method: (§1)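 Seeding density for each of the 10 AML and 5 CML cell lines was titrated to the linear growth range. Cells went into 384-well plates pre-printed in duplicate with compounds at 1, 10, 100, 1000 or 10000 nM and were held for 72 h at 37 °C with 5% CO2. CellTiter-Glo luminescence then provided the readout. Percent survival is expressed relative to vehicle at 100% and a 10 µM positive control at 0%, averaged over duplicates.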

KCL-22 = assay: as above
Summary of the method: as §1

NOMO-1 = assay: as above
Summary of the method: as §1

Mono-Mac-6 = assay: as above
Summary of the method: as §1

BV-173 = assay: as above
Summary of the method: as §1

KU-812 = assay: as above
Summary of the method: as §1

THP-1 = assay: as above
Summary of the method: as §1

MOLM-13 = assay: as above
Summary of the method: as §1

HL-60 [2] = assay: as above
Summary of the method: as §1

ML-2 = assay: as above
Summary of the method: as §1

SHI-1 = assay: as above
Summary of the method: as §1

K-562 = assay: as above
Summary of the method: as §1

HEL = assay: as above
Summary of the method: as §1

LAMA-84 = assay: as above
Summary of the method: as §1

KG-1 = assay: as above
Summary of the method: as §1

MV4-11 [3] = tested on: MV4-11
Summary of the method: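 The IC50 was read from log-logistic dose–response fits. Fifteen myeloid leukaemia lines were exposed for 72 h at 37 °C with 5% CO2 to five tenfold doses from 1 to 10,000 nM in duplicate. ATP luminescence, normalised to vehicle and to a 10 µM positive control, was fitted with four parameters.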

HL-60 [4] = assay: area under dose-response curve (viability, 1 nM-10 uM) (fraction (0-1)); higher = more sensitive
Summary of the method: (§2)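 Four-parameter log-logistic fits in drc and PharmacoGx supplied area under the curve where it is given. Underlying viability came from CellTiter-Glo, normalised to DMSO and proteasome-inhibitor wells, with the proteasome inhibitor at 10 μM. HL-60 cells in RPMI 1640 plus 10% FBS had been rescreened against the full library at five tenfold concentrations of 1–10,000 nM, in duplicate on 384-well plates, with DMSO or 100 nM of one of three metabolic inhibitors, for 72 h at 37 °C, 5% CO2.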

HL-60 [5] = assay: cell viability (% survival relative to DMSO control); higher = less cytotoxic
Summary of the method: as §2

COc1ccc(S(=O)(=O)N2CCN(S(=O)(=O)c3ccc4c(c3)OCCO4)CC2)cc1 [BML283]
Details	area under dose-response curve, co-treatment: AZD3965 100 nM	area under dose-response curve, co-treatment: DMSO vehicle	area under dose-response curve, co-treatment: GSK2194069 100 nM	area under dose-response curve, co-treatment: pictilisib 100 nM	cell viability, 1 nM [%]	cell viability, 10 nM [%]	cell viability, 100 nM [%]	cell viability, 1000 nM [%]	cell viability, 10000 nM [%]
BV-173	–	–	–	–	89.9	85.8	97.5	91.7	112
HEL	–	–	–	–	107	88.3	96.7	90.8	101
HL-60 [2]	–	–	–	–	104	97.4	85.2	120	99.9
HL-60 [4]	< 0.0301	< 0.0301	< 0.0301	0.0571	–	–	–	–	–
K-562	–	–	–	–	107	95.2	97.7	92.5	98.6
KCL-22	–	–	–	–	106	93.3	91.1	98.1	91.2
KG-1	–	–	–	–	92.7	105	99	109	105
KU-812	–	–	–	–	90.3	99.5	103	108	96.5
LAMA-84	–	–	–	–	101	93.8	100	103	106
ML-2	–	–	–	–	102	98.6	105	106	102
MOLM-13	–	–	–	–	96.4	81.7	100	113	97.8
MV4-11 [1]	–	–	–	–	103	93.6	89	94.1	101
Mono-Mac-6	–	–	–	–	103	101	99.8	97.6	98.6
NOMO-1	–	–	–	–	98	95.1	94.9	102	99.7
SHI-1	–	–	–	–	110	94.8	96.9	96.3	103
THP-1	–	–	–	–	98.5	103	99.3	98.9	103

Details	IC50 (cell viability) [µM]
MV4-11 [3]	> 10

cell viability [%], HL-60 [5]
Details	0.001 µM	0.01 µM	0.1 µM	1 µM	10 µM
co-treatment: AZD3965 100 nM	101.4	96.5	107	104	84
co-treatment: DMSO vehicle	102	86.2	103	107	97.1
co-treatment: GSK2194069 100 nM	99.2	74.9	99.56	99.4	98.6
co-treatment: pictilisib 100 nM	105	74.7	100.2	90.1	77.4

C=C(C=NNC(=N)N)NNC(=N)N [Mitoguazone]
Details	area under dose-response curve, co-treatment: AZD3965 100 nM	area under dose-response curve, co-treatment: DMSO vehicle	area under dose-response curve, co-treatment: GSK2194069 100 nM	area under dose-response curve, co-treatment: pictilisib 100 nM	cell viability, 1 nM [%]	cell viability, 10 nM [%]	cell viability, 100 nM [%]	cell viability, 1000 nM [%]	cell viability, 10000 nM [%]
BV-173	–	–	–	–	105	111	107	71	13.3
HEL	–	–	–	–	103	108	97.5	93.2	50.4
HL-60 [2]	–	–	–	–	85.2	73.2	148	97.7	32.9
HL-60 [4]	0.0689	< 0.0301	0.0353	0.0324	–	–	–	–	–
K-562	–	–	–	–	96.1	105	114	67	29.3
KCL-22	–	–	–	–	94.4	100	103	86.9	42
KG-1	–	–	–	–	94.9	97.2	103	84.7	34.8
KU-812	–	–	–	–	105	107	96.5	83	30.6
LAMA-84	–	–	–	–	99.9	104	100	86.6	24.4
ML-2	–	–	–	–	97.7	104	100	56.6	24.7
MOLM-13	–	–	–	–	93.7	88.3	133	52.2	13.8
MV4-11 [1]	–	–	–	–	105	99.2	115	59.8	10.4
Mono-Mac-6	–	–	–	–	92.4	92.3	85.5	55.3	18.1
NOMO-1	–	–	–	–	94.9	102	90.9	61.7	16.2
SHI-1	–	–	–	–	93.8	89.2	95.4	59.8	20.6
THP-1	–	–	–	–	101	104	94.9	76.1	43.6

Details	IC50 (cell viability) [µM]
MV4-11 [3]	1.13

cell viability [%], HL-60 [5]
Details	0.001 µM	0.01 µM	0.1 µM	1 µM	10 µM
co-treatment: AZD3965 100 nM	98	102	102	93.1	48.6
co-treatment: DMSO vehicle	99.2	100.1	97.8	101	69.6
co-treatment: GSK2194069 100 nM	101	112	102.2	98.3	76.9
co-treatment: pictilisib 100 nM	108	120	104	112	56.7
